Assay [1] relates to U2OS. The assay is described as follows: Inhibition of autophagy in human U2OS cells expressing tfLC3 incubated for 3 hrs by fluorescent microscopy. It counts as functional, cell-based.
Assay [2] deals with U2OS. Put plainly: Cytotoxicity against human U2OS cells. It counts as functional, cell-based.
Assay [3] addresses T1, Serine/threonine-protein kinase ULK2 (Homo sapiens, UniProt Q8IYT8).
T1 sequence (Q8IYT8 whole entry): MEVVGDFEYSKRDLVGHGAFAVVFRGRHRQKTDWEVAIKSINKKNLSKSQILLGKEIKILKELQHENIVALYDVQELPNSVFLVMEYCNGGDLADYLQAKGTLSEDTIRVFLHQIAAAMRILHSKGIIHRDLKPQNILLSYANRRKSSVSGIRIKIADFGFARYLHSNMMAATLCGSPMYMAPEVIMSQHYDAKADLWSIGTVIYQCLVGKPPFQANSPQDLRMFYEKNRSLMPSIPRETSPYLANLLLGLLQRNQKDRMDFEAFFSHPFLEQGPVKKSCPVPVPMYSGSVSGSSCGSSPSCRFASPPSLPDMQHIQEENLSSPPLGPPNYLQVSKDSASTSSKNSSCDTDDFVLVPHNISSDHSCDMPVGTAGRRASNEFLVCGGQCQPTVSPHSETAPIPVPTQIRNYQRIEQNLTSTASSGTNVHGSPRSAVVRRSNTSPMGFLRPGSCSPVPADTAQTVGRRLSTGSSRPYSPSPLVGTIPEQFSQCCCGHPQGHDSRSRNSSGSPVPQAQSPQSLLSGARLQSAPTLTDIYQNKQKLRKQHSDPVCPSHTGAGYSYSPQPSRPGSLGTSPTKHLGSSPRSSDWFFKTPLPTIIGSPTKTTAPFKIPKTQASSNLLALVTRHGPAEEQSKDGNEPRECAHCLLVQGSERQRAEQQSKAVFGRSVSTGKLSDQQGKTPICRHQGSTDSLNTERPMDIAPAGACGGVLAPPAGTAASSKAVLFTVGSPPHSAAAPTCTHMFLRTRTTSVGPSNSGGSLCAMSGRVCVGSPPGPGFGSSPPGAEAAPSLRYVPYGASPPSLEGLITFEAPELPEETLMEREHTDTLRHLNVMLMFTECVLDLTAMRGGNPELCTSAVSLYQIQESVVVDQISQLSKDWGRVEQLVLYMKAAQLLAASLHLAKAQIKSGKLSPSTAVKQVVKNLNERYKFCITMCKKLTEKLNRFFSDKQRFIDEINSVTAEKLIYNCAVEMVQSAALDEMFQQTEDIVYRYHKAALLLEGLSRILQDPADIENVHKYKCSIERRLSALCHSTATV
The assay is described as follows: Inhibition of ULK2 (unknown origin).

The target of assay [4] is T2, Serine/threonine-protein kinase ULK1 (Homo sapiens, UniProt O75385).
T2 sequence (O75385 whole entry): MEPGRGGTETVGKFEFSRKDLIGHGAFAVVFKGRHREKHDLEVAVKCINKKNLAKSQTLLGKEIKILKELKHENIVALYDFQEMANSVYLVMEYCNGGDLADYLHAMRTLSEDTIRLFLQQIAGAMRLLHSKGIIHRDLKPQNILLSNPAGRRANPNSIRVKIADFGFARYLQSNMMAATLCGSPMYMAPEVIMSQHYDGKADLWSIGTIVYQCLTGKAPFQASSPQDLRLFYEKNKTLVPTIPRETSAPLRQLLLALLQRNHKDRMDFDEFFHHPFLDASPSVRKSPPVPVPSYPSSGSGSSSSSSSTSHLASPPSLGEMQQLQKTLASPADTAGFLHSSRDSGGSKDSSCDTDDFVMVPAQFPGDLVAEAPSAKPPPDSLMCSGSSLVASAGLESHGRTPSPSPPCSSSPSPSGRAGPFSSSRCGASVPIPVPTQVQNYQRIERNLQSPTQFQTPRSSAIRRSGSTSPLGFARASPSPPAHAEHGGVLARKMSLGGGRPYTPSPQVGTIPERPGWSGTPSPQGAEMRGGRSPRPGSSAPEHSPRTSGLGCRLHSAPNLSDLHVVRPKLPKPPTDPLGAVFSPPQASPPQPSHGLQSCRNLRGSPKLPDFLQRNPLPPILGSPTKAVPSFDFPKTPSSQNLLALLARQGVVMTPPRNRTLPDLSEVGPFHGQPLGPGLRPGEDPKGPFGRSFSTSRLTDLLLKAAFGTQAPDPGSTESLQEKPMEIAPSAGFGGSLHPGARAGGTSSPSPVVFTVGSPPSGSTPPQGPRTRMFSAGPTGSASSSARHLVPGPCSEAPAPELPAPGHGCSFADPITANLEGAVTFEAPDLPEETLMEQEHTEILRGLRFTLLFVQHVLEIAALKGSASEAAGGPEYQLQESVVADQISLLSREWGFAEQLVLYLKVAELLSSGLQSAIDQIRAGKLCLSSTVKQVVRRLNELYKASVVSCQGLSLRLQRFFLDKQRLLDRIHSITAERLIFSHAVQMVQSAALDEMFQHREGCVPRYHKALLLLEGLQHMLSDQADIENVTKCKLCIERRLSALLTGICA
Put plainly: Inhibition of ULK1 (unknown origin).

A further assay deals with BT-474. Put plainly: Inhibition of autophagy in human BT-474 cells. In kind it is functional, cell-based.
The target of assay [5] is AMP-activated protein kinase, AMPK. Put plainly: Inhibition of rat AMPK. In kind it is protein-complex assay.
Assay [6] in a line: Inhibition of V-ATPase (unknown origin). Also noted: species or system Homo sapiens.
The target in assay [7] is Phosphatidylinositol 4,5-bisphosphate 3-kinase catalytic subunit gamma isoform (Homo sapiens, UniProt P48736). Put plainly: Inhibition of P13Kgamma (unknown origin).
The nature of assay [8]: Inhibition of bafilomycin induced autophagic flux in mouse embryonic fibroblast cells assessed as fold change in LC3-II levels at 1 uM incubated for 1 hr by immunoblot analysis relative to control. It counts as functional. Background: In western blotting, separated proteins are transferred to a membrane and probed.

SMILES strings stand for the structures.

Chain of Phosphatidylinositol 4,5-bisphosphate 3-kinase catalytic subunit gamma isoform (P48736 whole entry, canonical isoform): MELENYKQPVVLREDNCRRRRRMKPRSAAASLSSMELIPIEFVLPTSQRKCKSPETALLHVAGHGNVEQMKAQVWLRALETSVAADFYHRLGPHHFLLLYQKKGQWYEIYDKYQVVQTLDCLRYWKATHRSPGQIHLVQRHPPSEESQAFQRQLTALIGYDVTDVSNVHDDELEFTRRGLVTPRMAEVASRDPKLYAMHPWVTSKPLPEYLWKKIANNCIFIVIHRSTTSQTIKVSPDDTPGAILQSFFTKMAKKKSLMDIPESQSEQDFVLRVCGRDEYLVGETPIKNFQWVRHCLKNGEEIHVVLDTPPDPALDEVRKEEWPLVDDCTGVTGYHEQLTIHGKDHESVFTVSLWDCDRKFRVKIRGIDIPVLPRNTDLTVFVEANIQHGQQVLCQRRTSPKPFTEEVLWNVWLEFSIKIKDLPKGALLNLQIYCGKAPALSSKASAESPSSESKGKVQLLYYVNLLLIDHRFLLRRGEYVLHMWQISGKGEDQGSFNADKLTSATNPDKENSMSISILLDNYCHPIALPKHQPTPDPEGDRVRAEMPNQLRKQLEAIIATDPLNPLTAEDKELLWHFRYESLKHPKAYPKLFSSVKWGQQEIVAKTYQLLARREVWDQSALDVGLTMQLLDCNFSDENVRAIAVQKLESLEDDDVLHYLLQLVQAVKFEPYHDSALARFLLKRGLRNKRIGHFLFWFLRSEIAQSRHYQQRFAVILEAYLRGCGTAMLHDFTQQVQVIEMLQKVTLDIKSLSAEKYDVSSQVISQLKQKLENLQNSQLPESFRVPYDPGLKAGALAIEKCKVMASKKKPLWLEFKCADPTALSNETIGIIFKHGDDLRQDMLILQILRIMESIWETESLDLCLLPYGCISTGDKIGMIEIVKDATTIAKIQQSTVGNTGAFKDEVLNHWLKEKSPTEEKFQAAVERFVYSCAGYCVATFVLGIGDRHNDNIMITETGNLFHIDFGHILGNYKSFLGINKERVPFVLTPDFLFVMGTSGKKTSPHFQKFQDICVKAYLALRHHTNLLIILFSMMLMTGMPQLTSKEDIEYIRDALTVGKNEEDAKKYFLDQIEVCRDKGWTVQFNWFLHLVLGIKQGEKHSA

What is called EC50 is the concentration at which the effect is half-maximal. As a reminder, the IC50 is the concentration that inhibits the measured activity by half. Higher therefore signals weaker potency in that assay. `COc1ccc2nc3cc(Cl)ccc3c(NCCCCN3CCN(C)CC3)c2c1` yielded an EC50 with U2OS [1] of 100 nM. For the same compound, the IC50 with U2OS [2] was 700 nM. For the compound `CC(C)[C@H](NC(=O)c1cc(C2C=C3N=C(c4ccc(OCCN5CCCCC5)cc4)C=CN3N2)cs1)C(F)(F)F` (some centres undefined), the IC50 in [3] is 2.6 nM; in assay [4] it was 1.6 nM. In the assay on BT-474, `CCN(CC)CCCC(C)Nc1ccnc2cc(Cl)ccc12` (centres undefined) [CHLOROQUINE] had an EC50 of 4800 nM.

With `c1cc(-c2cnn3cc(-c4ccc(OCCN5CCCCC5)cc4)cnc23)ccn1` [DORSOMORPHIN], the IC50 in assay [5] was 1280 nM.

`CCN(CC)CCNC(=O)c1c(C)[nH]c(/C=C2\C(=O)Nc3ccc(F)cc32)c1C` [SUNITINIB] returned a half-maximal inhibitory concentration (IC50) in [5] of 62 nM. Regarding `CN1CCN(CCNc2c3ccccc3nc3cc(Cl)ccc23)CC1`, the EC50 in the assay with U2OS [1] turned out to be 5000 nM. The compound further displayed a half-inhibitory concentration (IC50) in the assay on U2OS [2] of 27000 nM. Compound `CO/C1=C\C(C)=C\[C@@H](C)[C@@H](O)[C@@H](C)C/C(C)=C/C=C/[C@H](OC)[C@@H]([C@@H](C)[C@@H](O)[C@H](C)[C@@]2(O)C[C@@H](O)[C@H](C)[C@@H](C(C)C)O2)OC1=O` [BAFILOMYCIN A1] displayed an IC50 in assay [6] of 0.44 nM.

As to `CN1CCN(Cc2cc(CNC3(c4ccccc4F)CCCC3)ccc2O)CC1`, the EC50 in the assay on BT-474 (read-out: EC50) was determined as 9500 nM. Consider `O=C(N[C@@H](C1CC1)C(F)(F)F)c1cc(C2C=C3N=C(c4ccc(F)cc4)C=CN3N2)cs1` (some centres undefined), for which the concentration for half-maximal inhibition (IC50) is 30 nM in assay [3] and 8.3 nM in assay [4].

In the case of `Cn1cnc(N)c2ncnc1-2` [3-METHYLADENINE], the IC50 in assay [7] worked out at 60000 nM. In the case of `CCN(CC)CCCC(C)Nc1c2ccc(Cl)cc2nc2ccc(OC)cc12` (centres undefined) [QUINACRINE], the EC50 with U2OS [1] stood at 250 nM. Besides, half-maximal inhibition in the assay on U2OS [2] (IC50) was put at 2500 nM. In the case of `O=C(NCCCNc1nc(Nc2cccc(CN3CCOCC3)c2)ncc1C1CC1)C1CC1`, the half-maximal inhibitory concentration (IC50) was found to be 1.1 nM in assay [3] and 2.9 nM in [4]. Also, the “fold change (FC)” value in assay [8] was 2.

The values are drawn from ChEMBL document CHEMBL5247623, “The SAR and action mechanisms of autophagy inhibitors that eliminate drug resistance” (Eur J Med Chem, 2022).
